Source: patent US20120214862A1, “MODULATION OF FACTOR 7 EXPRESSION” (ISIS Pharmaceuticals, Inc., priority 2009, published 2012)
In the oligonucleotide strings, read from the 5' end, every base follows the letter of its sugar. An asterisk marks phosphorothioate; unmarked linkages are phosphodiester. Other units and linkages are bracketed, terminal groups are in braces. A string of capitals states the bases alone. e = 2'-O-(2-methoxyethyl) (MOE); [5mC] = 5-methylcytosine; d = 2'-deoxy (DNA)

Test system: human Factor 7 mRNA
Experiment: Antisense inhibition of human Factor 7 mRNA in HepB3 cells, lipofectin, 50 nM, real-time RT-PCR
Type: cell-based
Conditions: HepB3 cells; for % Inhibition (human Factor 7 mRNA): 50 nM, ~24 h
In short: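 After transfection of wells containing 4,000 cells, treatment ran for approximately 24 h. RIBOGREEN®-measured total RNA served for normalisation, and inhibition was calculated as a percentage of untreated control.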

[1] = gapmers targeted to nucleobases 11830 to 11869 of SEQ ID NO: 1 (Table 9)
[2] = lipofectin, 50 nM antisense oligonucleotide, approximately 24 hours, primer probe set RTS 2927, relative to untreated control
[3] = gapmers (5-10-5, 3-14-3, 2-13-5 MOE) targeted to nucleobases 4868 to 4899 of SEQ ID NO: 1
[4] = gapmers targeted to nucleobases 13760 to 13789 of SEQ ID NO: 1 (Table 10)
[5] = Example 1, lipofectin, relative to untreated control cells

Q: Which “% Inhibition of human Factor 7 mRNA levels” value [1] does the source give for “422160 (antisense e[5mC]*eA*eA*dT*dG*dG*dT*d[5mC]*dA*dG*dG*dG*d[5mC]*dT*dG*dG*dT*eT*eT*eT) [compound 422160]” here?
A: Its value is 42%.

Q: How did the “% Inhibition of human Factor 7 mRNA levels” value [2] turn out when “416442 (antisense eA*eG*e[5mC]*eA*eG*dA*dT*dA*dT*dA*dG*dG*dA*d[5mC]*dT*eG*eG*eA*eG*e[5mC]) [compound 416442]” was run?
A: The value was 57%.

Q: Which “% Inhibition of human Factor 7 mRNA levels” value [2] does the source give for “416424 (antisense eG*eA*eG*eA*e[5mC]*d[5mC]*dA*dT*dG*dA*dT*dG*dA*dA*dA*eT*e[5mC]*eT*e[5mC]*eT) [compound 416424]” here?
A: The value was 27%.

Q: “422158 (antisense eA*eT*eG*dG*dT*d[5mC]*dA*dG*dG*dG*d[5mC]*dT*dG*dG*dT*dT*dT*eT*eG*eG) [compound 422158]” was tested. Which “% Inhibition of human Factor 7 mRNA levels” value [1] did it give?
A: The value was 49%.

Q: How did the “% Inhibition (human Factor 7 mRNA)” value (Example 4, lipofectin, relative to untreated control) turn out when “422194 (antisense e[5mC]*eT*eG*dA*dG*d[5mC]*dG*d[5mC]*dG*dG*dA*dA*dG*dA*dA*dG*dG*eG*eA*e[5mC]) [compound 422194]” was run?
A: Its value is 11%.

Q: For “422107 (antisense eG*e[5mC]*eT*eG*eG*d[5mC]*dT*dG*dA*dG*dG*dA*dG*dA*d[5mC]*eA*eA*eT*eG*eG) [compound 422107]”, which “% Inhibition of human Factor 7 mRNA levels” value [1] is on record?
A: The value was 36%.

Q: Which “% Inhibition of human Factor 7 mRNA levels” value [2] does the source give for “416512 (antisense eG*eA*e[5mC]*eG*eA*d[5mC]*d[5mC]*dT*dT*dT*dG*d[5mC]*dT*dG*dG*eG*eA*eG*eG*eA) [compound 416512]” here?
A: The value was 43%.

Q: Which “% Inhibition of human Factor 7 mRNA levels” value [2] does the source give for “416562 (antisense eA*eA*eA*eG*e[5mC]*dA*dG*dA*dG*d[5mC]*d[5mC]*dA*dG*d[5mC]*dT*e[5mC]*eT*eG*eA*e[5mC]) [compound 416562]” here?
A: Its value is 12%.

Q: How did the “% Inhibition of human Factor 7 mRNA levels” value [2] turn out when “416497 (antisense e[5mC]*eG*eT*eG*e[5mC]*dA*dG*dG*dT*dG*dT*dT*dA*dA*dG*eG*eT*eG*eT*eG) [compound 416497]” was run?
A: Its value is 0%.

Q: With “422213 (antisense eT*e[5mC]*eT*dG*d[5mC]*dA*dG*dG*dA*dG*d[5mC]*dG*dG*d[5mC]*d[5mC]*dT*dA*eA*eA*eT) [compound 422213]” as the substance, how does the “% Inhibition of human Factor 7 mRNA levels” value [3] read?
A: The value was 67%.

Q: How did the “% Inhibition of human Factor 7 mRNA levels” value [2] turn out when “416505 (antisense eG*e[5mC]*eA*eG*eA*dT*dT*dT*dG*d[5mC]*dA*dT*d[5mC]*dA*dG*eA*eA*eA*eA*eG) [compound 416505]” was run?
A: The value was 45%.

Q: How did the “% Inhibition of human Factor 7 mRNA levels” value [1] turn out when “422092 (antisense eA*eT*eG*eG*eT*d[5mC]*dA*dG*dG*dG*d[5mC]*dT*dG*dG*dT*eT*eT*eT*eG*eG) [compound 422092]” was run?
A: Its value is 36%.

Q: “422223 (antisense eG*eA*eG*d[5mC]*d[5mC]*d[5mC]*dG*dA*dG*dT*dT*d[5mC]*dT*dG*d[5mC]*dA*dG*eG*eA*eG) [compound 422223]” was tested. Which “% Inhibition of human Factor 7 mRNA levels” value [3] did it give?
A: Its value is 48%.

Q: For “422259 (antisense e[5mC]*eG*d[5mC]*d[5mC]*dA*d[5mC]*d[5mC]*d[5mC]*dG*d[5mC]*d[5mC]*dG*dG*d[5mC]*dT*e[5mC]*eT*eG*e[5mC]*eT) [compound 422259]”, which “% Inhibition of human Factor 7 mRNA levels” value [4] is on record?
A: The value was 61%.

Q: For “416565 (antisense e[5mC]*eA*eG*eG*eA*dT*dG*d[5mC]*dT*d[5mC]*dA*dT*dG*dG*d[5mC]*eA*eG*eA*e[5mC]*eA) [compound 416565]”, which “% Inhibition of human Factor 7 mRNA levels” value [2] is on record?
A: Its value is 0%.

Q: With “422225 (antisense eA*eG*eG*dA*dG*d[5mC]*d[5mC]*d[5mC]*dG*dA*dG*dT*dT*d[5mC]*dT*dG*d[5mC]*eA*eG*eG) [compound 422225]” as the substance, how does the “% Inhibition of human Factor 7 mRNA levels” value [3] read?
A: The value was 56%.

Q: How did the “% Inhibition of human Factor 7 mRNA levels” value [1] turn out when “422166 (antisense eA*eG*eG*dA*dG*dA*d[5mC]*dA*dA*dT*dG*dG*dT*d[5mC]*dA*dG*dG*eG*e[5mC]*eT) [compound 422166]” was run?
A: Its value is 63%.

Q: With “422227 (antisense eG*e[5mC]*dA*dT*dG*dG*dT*dG*dA*dT*dG*d[5mC]*dT*dT*d[5mC]*eT*eG*eA*eA*eT) [compound 422227]” as the substance, how does the “% Inhibition of human Factor 7 mRNA levels” value (gapmers targeted to nucleobases 15188 to 15211 of SEQ ID NO: 1 (Table 13)) read?
A: Its value is 67%.

Q: How did the “% Inhibition of human Factor 7 mRNA levels” value [2] turn out when “416496 (antisense e[5mC]*eA*eA*e[5mC]*eA*d[5mC]*dT*dT*d[5mC]*dA*dA*dA*dT*dA*d[5mC]*eG*eA*eT*e[5mC]*eT) [compound 416496]” was run?
A: Its value is 0%.

Q: “416514 (antisense eG*eT*eA*eT*eT*dT*dT*d[5mC]*dT*dG*dA*dT*dG*dT*dG*eA*eA*eA*eA*e[5mC]) [compound 416514]” was tested. Which “% Inhibition of human Factor 7 mRNA levels” value [2] did it give?
A: The value was 8%.

Q: “407623 (antisense eT*e[5mC]*e[5mC]*eA*eT*dT*d[5mC]*dA*d[5mC]*d[5mC]*dA*dA*d[5mC]*dA*dA*e[5mC]*eA*eG*eG*eA) [compound 407623]” was tested. Which “% Inhibition (human Factor 7 mRNA)” value [5] did it give?
A: Its value is 69%.

Q: For “422171 (antisense eG*eG*e[5mC]*dT*dG*dA*dG*dG*dA*dG*dA*d[5mC]*dA*dA*dT*dG*dG*eT*e[5mC]*eA) [compound 422171]”, which “% Inhibition of human Factor 7 mRNA levels” value [1] is on record?
A: Its value is 61%.

Q: How did the “% Inhibition of human Factor 7 mRNA levels” value [4] turn out when “422253 (antisense e[5mC]*e[5mC]*dG*d[5mC]*d[5mC]*dG*dG*d[5mC]*dT*d[5mC]*dT*dG*d[5mC]*dT*d[5mC]*eA*eT*e[5mC]*e[5mC]*e[5mC]) [compound 422253]” was run?
A: The value was 61%.

Q: With “407956 (antisense eA*eA*e[5mC]*eT*eT*dG*d[5mC]*dA*dT*dT*dT*dA*dG*dT*dG*eA*eT*eG*e[5mC]*eG) [compound 407956]” as the substance, how does the “% Inhibition (human Factor 7 mRNA)” value [5] read?
A: The value was 19%.

Q: With “407596 (antisense eG*eA*eG*eG*e[5mC]*d[5mC]*d[5mC]*d[5mC]*dG*dG*d[5mC]*dT*dT*d[5mC]*d[5mC]*eA*e[5mC]*eG*eG*e[5mC]) [compound 407596]” as the substance, how does the “% Inhibition (human Factor 7 mRNA)” value [5] read?
A: The value was 61%.

Q: For “407613 (antisense eT*eG*e[5mC]*eT*e[5mC]*dA*d[5mC]*dA*dG*d[5mC]*d[5mC]*dG*d[5mC]*d[5mC]*dG*eT*eT*e[5mC]*eT*e[5mC]) [compound 407613]”, which “% Inhibition (human Factor 7 mRNA)” value [5] is on record?
A: Its value is 66%.

Q: “407636 (antisense eG*e[5mC]*eA*eG*e[5mC]*d[5mC]*d[5mC]*dT*dG*dG*d[5mC]*d[5mC]*d[5mC]*d[5mC]*dA*eG*e[5mC]*eT*eG*eA) [compound 407636]” was tested. Which “% Inhibition (human Factor 7 mRNA)” value [5] did it give?
A: The value was 75%.

Q: For “422236 (antisense eA*eA*dT*dG*dG*dT*d[5mC]*dA*dG*dG*dG*d[5mC]*dT*dG*dG*eT*eT*eT*eT*eG) [compound 422236]”, which “% Inhibition of human Factor 7 mRNA levels” value [1] is on record?
A: Its value is 44%.

Q: For “422245 (antisense eT*eG*dA*dG*dG*dA*dG*dA*d[5mC]*dA*dA*dT*dG*dG*dT*e[5mC]*eA*eG*eG*eG) [compound 422245]”, which “% Inhibition of human Factor 7 mRNA levels” value [1] is on record?
A: The value was 24%.

Q: “422238 (antisense eA*e[5mC]*dA*dA*dT*dG*dG*dT*d[5mC]*dA*dG*dG*dG*d[5mC]*dT*eG*eG*eT*eT*eT) [compound 422238]” was tested. Which “% Inhibition of human Factor 7 mRNA levels” value [1] did it give?
A: The value was 64%.

Q: For “407632 (antisense eT*e[5mC]*e[5mC]*eG*eT*dT*d[5mC]*dG*dG*dG*d[5mC]*dA*dG*dG*d[5mC]*eA*eG*eA*eG*eG) [compound 407632]”, which “% Inhibition (human Factor 7 mRNA)” value [5] is on record?
A: Its value is 46%.

Q: Which “% Inhibition of human Factor 7 mRNA levels” value [2] does the source give for “416434 (antisense e[5mC]*eT*eG*eT*eA*dA*dG*dA*dA*dA*dT*d[5mC]*d[5mC]*dA*dG*eA*eA*e[5mC]*eA*eG) [compound 416434]” here?
A: The value was 0%.
